Earlier results as cited in patent publication US7935348B2, “Combination therapy for the treatment of Alzheimer's disease” (Affiris Forschungs-und Entwicklungs GmbH, priority 2004, dated 2011).
Entries after “also recorded” stand apart in the source; their conditions may differ.

Experiments:
[1] = test system: Aβ; conditions: for Aβ amount in the brain: peripheral treatment
[2] = test system: PDAPP transgenic mouse

Chain of Aβ (P05067 672-711 limits assumed): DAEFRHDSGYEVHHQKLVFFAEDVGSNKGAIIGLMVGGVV

gelsolin
Aβ content in the plasma ([1]; peripheral administration): not reduced; also recorded: increased Aβ content in the plasma | Aβ amount in the brain [1]: reduction of the Aβ amount in the brain

aggregated Aβ42: aggregated 42-amino acid form of amyloid-β peptide used as a "normal", not mimotope-based vaccine
AD-type neuropathologies ([2]; immunization of young animals, before onset (6 weeks)): prevented the development of plaque formation, neuritic dystrophy and astrogliosis | AD-like neuropathologies ([2]; treatment of older animals (11 months)): markedly reduced AD-like neuropathologies

GM1
Aβ amount in the brain [1]: reduction of the Aβ amount in the brain
